Assay results from patent publication US10368545B2, “Substituted 2-thioimidazolylcarboxamides as pesticides” (BAYER CROPSCIENCE AKTIENGESELLSCHAFT, priority 2015, dated 2019).
Several values for one entry are separate records, joined by “and”; a condition that tells them apart may be missing. Equal values may be shown once. Read-outs that look alike come from different tables or passages of the source.

Legend:
[1] = log P by HPLC on reversed-phase C18 columns (OECD Guideline 117); type: physicochemical; conditions: for logP[a]: method [a]; for logP[b]: method [b]; for chromatographic logP: reversed-phase C18 HPLC column
Outline: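 Reversed-phase C18 HPLC per OECD 117, LC-MS with a linear 10% to 95% acetonitrile gradient. Acidic method at pH 2.7 with 0.1% formic acid; neutral method at pH 7.8 with 0.001 M ammonium hydrogencarbonate.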

[2] = test system: green peach aphid (Myzus persicae); assay: Myzus persicae spray test (bell pepper plants); type: in vivo; conditions: after 6 days
Experimental: Myzus persicae—Spray Test
Solvent: 14 parts by weight of dimethylformamide
(§1) Emulsifier: alkylaryl polyglycol ether
To produce a suitable active compound preparation, 1 part by weight of active compound is dissolved using the stated parts by weight of solvent and made up with water containing an emulsifier concentration of 1000 ppm until the desired concentration is attained. To produce further test concentrations, the preparation is diluted with emulsifier-containing water. If the addition of ammonium salts and/or penetrants is required, these are each added in a concentration of 1000 ppm to the formulation solution.
Bell pepper plants (Capsicum annuum) severely infested with the green peach aphid (Myzus persicae) are treated by spraying with the active compound preparation in the desired concentration.
After 6 days, the kill in % is determined. 100% means that all of the aphids have been killed; 0% means that none of the aphids have been killed.

[3] = test system: green peach aphid (Myzus persicae); assay: Contrasting example: Myzus persicae spray test (MYZUPE); type: in vivo; conditions: MYZUPE, 100 g ai/ha
Experimental: Myzus persicae—Spray Test (MYZUPE)
(§2) Solvents: 78.0 parts by weight of acetone • • 1.5 parts by weight of dimethylformamide
as §1
(§3) To produce a suitable active compound preparation, 1 part by weight of active compound is dissolved using the stated parts by weight of solvent and made up with water containing an emulsifier concentration of 1000 ppm until the desired concentration is attained. To produce further test concentrations, the preparation is diluted with emulsifier-containing water.
Discs of Chinese cabbage leaves (Brassica pekinensis), infested by all stages of the green peach aphid (Myzus persicae) are sprayed with an active compound preparation of the desired concentration.
After the desired period of time, the efficacy in % is determined. 100% means that all aphids were killed; 0% means that no aphids were killed.

[4] = test system: green peach aphid (Myzus persicae); assay: Myzus persicae spray test (Chinese cabbage leaf discs); type: in vivo; conditions: after 5 or 6 days, Chinese cabbage leaf discs
Outline: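 Leaf discs bearing all aphid stages are sprayed with compound dissolved in acetone/DMF and diluted with water containing 1000 ppm emulsifier. Efficacy in % is scored after 5 or 6 days: 100% means all aphids killed, 0% none killed.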

[5] = test system: greenhouse red spider mite (Tetranychus urticae); assay: Contrasting example: Tetranychus urticae spray test, OP resistant (TETRUR); type: in vivo; conditions: 500 g ai/ha, 6 dat
Experimental: Tetranychus urticae—Spray Test; OP Resistant (TETRUR)
as §2, §1, §3
Discs of bean leaves (Phaseolus vulgaris), infested by all stages of the greenhouse red spider mite (Tetranychus urticae) are sprayed with an active compound preparation of the desired concentration.
After the desired period of time, the efficacy in % is determined. 100% means that all spider mites were killed; 0% means that no spider mites were killed.

SMILES	logP[a] [1]	logP[b] [1]	% efficacy ([3]; 6 dat)	efficacy (aphids killed) ([4]; application rate 500 g/ha)	% efficacy ([3]; 5 dat)	other results
Cc1cc(C)nc(Sc2ncc(C(=O)Nc3cccnc3)n2C)n1 [I-A-4]	1.55	1.97	70%			efficacy (kill of aphids) ([2]; application rate 20 ppm): 99%
COCCCSc1ncc(C(=O)N(C)c2cccnc2)n1C [I-A-20]	1.04	1.35				efficacy (kill of aphids) ([2]; application rate 20 ppm): 99%
CON=C(C)CSc1ncc(C(=O)N(C)c2cccnc2)n1C [I-A-39]	1.13	1.37 and 1.45		90%		% efficacy [5]: 70%
CCN(C(=O)c1cnc(SC)n1C)c1cccnc1 [I-A-44]	0.80	1.30				efficacy (kill of aphids) ([2]; application rate 20 ppm): 100%
CN(C(=O)c1cnc(Sc2ccc(Cl)cc2)n1C)c1cccnc1 [I-A-57]	2.02	2.14				efficacy (kill of aphids) ([2]; application rate 20 ppm): 99%
CN(C(=O)c1cnc(Sc2cccc(Cl)c2)n1C)c1cccnc1 [I-A-66]	1.97	2.11				efficacy (kill of aphids) ([2]; application rate 100 ppm): 99%
CN(C(=O)c1cnc([S+]([O-])c2ccc([N+](=O)[O-])cc2)n1C)c1cccnc1 (stereo not drawn) [I-A-89]	1.20	1.38	70%			efficacy (kill of aphids) ([2]; application rate 20 ppm): 99%
Cc1cnc(Sc2ncc(C(=O)N(C)c3cccnc3)n2C)nc1 [I-A-104]	0.97		90%	100%		
COc1ccnc(Sc2ncc(C(=O)N(C)c3cccnc3)n2C)n1 [I-A-106]	1.20		90%	100%		
CN(C(=O)c1cnc(Sc2ncc(F)cn2)n1C)c1cccnc1 [I-A-107]	1.04	1.20	90%	90%		% efficacy [5]: 70%
Cc1cccc(Sc2ncc(C(=O)N(C)c3cccnc3)n2C)n1 [I-A-108]	1.28	1.43	70%	100%		
CN(C(=O)c1cnc(Sc2ncccc2C(F)(F)F)n1C)c1cccnc1 [I-A-110]	1.77	1.93	100%	100%		% efficacy [5]: 70%
CN(C(=O)c1cnc(SCc2ncccn2)n1C)c1cccnc1 [I-A-112]	0.56	0.85	90%	100%		
CN(C(=O)c1cnc(SCc2cnccn2)n1C)c1cccnc1 [I-A-113]	0.66	0.93	90%	90%		
CN(C(=O)c1cnc(SCc2ccncc2)n1C)c1cccnc1 [I-A-116]	0.16	1.11	90%	100%		
CN(C(=O)c1cnc(SCc2ccccn2)n1C)c1cccnc1 [I-A-117]	0.63	1.16	90%	90%		

SMILES	logP[a] [1]	logP[b] [1]	% efficacy ([3]; 6 dat)	efficacy (aphids killed) ([4]; application rate 500 g/ha)	% efficacy ([3]; 5 dat)	other results
CN(C(=O)c1cnc(SCc2ccc(Cl)nc2)n1C)c1cccnc1 [I-A-122]	1.37	1.58	90%	100%		
CN(C(=O)c1cnc(SCc2c(Cl)cccc2Cl)n1C)c1cccnc1 [I-A-125]	2.09	2.28	70%	90%		% efficacy [5]: 70%
CN(C(=O)c1cnc(SCc2c(Cl)cccc2C(F)(F)F)n1C)c1cccnc1 [I-A-126]	2.47	2.54	70%	100%		
COc1cc(OC)nc(CSc2ncc(C(=O)N(C)c3cccnc3)n2C)n1 [I-A-128]	1.41	1.68	90%	90%		
CN(C(=O)c1cnc([S+]([O-])Cc2ccccc2)n1C)c1cccnc1 (stereo not drawn) [I-A-130]	1.18			90%	90%	
CN(C(=O)c1cnc(Sc2nc3ccccc3n2C)n1C)c1cccnc1 [I-A-134]	1.27	1.56		100%	100%	
Cc1nnc(Sc2ncc(C(=O)N(C)c3cccnc3)n2C)o1 [I-A-135]	0.62	0.89		100%	90%	
CCn1c(Sc2ncc(C(=O)N(C)c3cccnc3)n2C)nnc1C(F)(F)F [I-A-137]	1.41	1.46		90%	90%	
CN(C(=O)c1cnc(Sc2nnc(C(F)(F)F)n2C)n1C)c1cccnc1 [I-A-138]	1.12	1.26		100%	90%	
CN(C(=O)c1cnc(Sc2nnc(C(F)F)n2C)n1C)c1cccnc1 [I-A-139]	0.87	1.00		100%	90%	
CN(C(=O)c1cnc(Sc2nnc(-c3ccccc3)s2)n1C)c1cccnc1 [I-A-140]	1.92	1.96		100%	70%	
CN(C(=O)c1cnc(Sc2ncc(-c3ccccc3)n2C)n1C)c1cccnc1 [I-A-141]	1.39	1.84		100%	70%	
Cc1nc(Sc2ncc(C(=O)N(C)c3cccnc3)n2C)oc1C [I-A-142]	1.31	1.47		90%	90%	
CN(C(=O)c1cnc(Sc2nccn2C)n1C)c1cccnc1 [I-A-144]		0.86		100%	90%	
CCn1c(C(=O)N(C)c2cccnc2)cnc1Sc1ncccn1 [I-A-146]	1.11	1.27			90%	efficacy (aphids killed) ([4]; application rate 100 g/ha): 90%
CN(C(=O)c1cn(C)c(Sc2ncccn2)n1)c1cccnc1 [I-B-1]						chromatographic logP ([1]; pH 2.7, acidic range, pH 2.7, 0.1% aqueous formic acid / acetonitrile, read-out: log P[a]): 0.42; chromatographic logP ([1]; pH 7.8, neutral range, pH 7.8, 0.001 molar aqueous ammonium hydrogencarbonate / acetonitrile, read-out: log P[n]): 0.83; pest or weed control at 500 g/ha ([4]; Myzus persicae, foliar, application rate 500 g/ha, read-out: efficacy (aphids killed)): 100%; pest or weed control at 100 g/ha ([3]; Myzus persicae, 144 h, 6 dat, read-out: % efficacy): 90%
